Measurements taken from PubChem BioAssay AID210 (DTP/NCI, 2004).
“And” between values parts separate entries of the source, which are not always exact repeats. Identical values can stand only once. Inconclusive results and toxic doses are left out. How the source made its calls: active means survival T/C of 150% or more; inactive means T/C below 125% in these data.

Tested on: CD2F1 mice, ip Colon 26 adenocarcinoma, median survival T/C
Experiment: NCI In Vivo Anticancer Drug Screen. Data for tumor model Colon 26 Adenocarcinoma (intraperitoneal) in CD2F1 (CDF1) mice
Settings: endpoint: median survival time, higher = longer survival
Method: The antitumor activity of compounds was measured in mice bearing transplantable tumors. Survival or tumor size were measured and the results are expressed as the measurement made in the treated group (T) divided by the measurement made in the vehicle treated control group (C). The tumor model used in this assay is Colon 26 Adenocarcinoma (intraperitoneal) in CD2F1 (CDF1) mice

[1] = dose: 12.5 mg/kg/injection, schedule: Q04DX003 (ip), vehicle: saline
[2] = dose: 25.0 mg/kg/injection, schedule: Q04DX003 (ip), vehicle: saline
[3] = dose: 50.0 mg/kg/injection, schedule: Q04DX003 (ip), vehicle: saline
[4] = dose: 100.0 mg/kg/injection, schedule: Q04DX003 (ip), vehicle: saline
[5] = dose: 2.0 mg/kg/injection, schedule: Q01DX009 (ip), vehicle: acid diluted with saline
[6] = dose: 4.0 mg/kg/injection, schedule: Q01DX009 (ip), vehicle: acid diluted with saline
[7] = dose: 8.0 mg/kg/injection, schedule: Q01DX009 (ip), vehicle: acid diluted with saline
[8] = dose: 16.0 mg/kg/injection, schedule: Q01DX009 (ip), vehicle: acid diluted with saline

Measured: T/C

Cc1cn(C2CC(O)C(CO)O2)c(=O)[nH]c1=O (stereo not given)
inactive: [1] 98 % of control | [2] 98 % of control | [3] 98 % of control | dose: 64.0 mg/kg/injection, schedule: Q04DX002 (ip), vehicle: suspension in saline 101 % of control | [4] 96 % of control and 100 % of control | dose: 128.0 mg/kg/injection, schedule: Q04DX002 (ip), vehicle: saline 88 % of control | dose: 128.0 mg/kg/injection, schedule: Q04DX002 (ip), vehicle: suspension in saline 100 % of control | dose: 200.0 mg/kg/injection, schedule: Q04DX003 (ip), vehicle: saline 99 % of control and 100 % of control | dose: 256.0 mg/kg/injection, schedule: Q04DX002 (ip), vehicle: suspension in saline 94 % of control | dose: 400.0 mg/kg/injection, schedule: Q04DX003 (ip), vehicle: saline 116 % of control and 98 % of control | dose: 512.0 mg/kg/injection, schedule: Q04DX002 (ip), vehicle: suspension in saline 94 % of control | dose: 1024.0 mg/kg/injection, schedule: Q04DX002 (ip), vehicle: saline 92 % of control | dose: 1024.0 mg/kg/injection, schedule: Q04DX002 (ip), vehicle: suspension in saline 95 % of control

C=CCNc1ccc(C)cc1
inactive: dose: 12.5 mg/kg/injection, schedule: Q04DX003 (ip), vehicle: saline with Tween-80 104 % of control | dose: 25.0 mg/kg/injection, schedule: Q04DX003 (ip), vehicle: saline with Tween-80 104 % of control | dose: 50.0 mg/kg/injection, schedule: Q04DX003 (ip), vehicle: saline with Tween-80 96 % of control | dose: 100.0 mg/kg/injection, schedule: Q04DX003 (ip), vehicle: saline with Tween-80 97 % of control

COc1cccc2c1C(=O)c1c(O)c3c(c(O)c1C2=O)C[C@@](O)(C(=O)CO)C[C@@H]3OC1CC(N)C(O)C(C)O1 (stereo not given in full)
inactive: dose: 0.38 mg/kg/injection, schedule: Q04DX003 (ip), vehicle: water 113 % of control | dose: 0.75 mg/kg/injection, schedule: Q04DX003 (ip), vehicle: water 117 % of control | dose: 1.5 mg/kg/injection, schedule: Q04DX003 (ip), vehicle: water 106 % of control | dose: 1.5 mg/kg/injection, schedule: Q07DX003 (iv), vehicle: saline 111 % of control | dose: 3.0 mg/kg/injection, schedule: Q04DX003 (ip), vehicle: water 91 % of control | dose: 3.0 mg/kg/injection, schedule: Q07DX003 (iv), vehicle: saline 97 % of control | dose: 3.3 mg/kg/injection, schedule: Q07DX002 (iv), vehicle: saline 105 % of control | dose: 3.7 mg/kg/injection, schedule: Q07DX003 (iv), vehicle: saline 112 % of control | dose: 4.3 mg/kg/injection, schedule: Q07DX002 (iv), vehicle: saline 106 % of control | dose: 4.5 mg/kg/injection, schedule: Q07DX002 (iv), vehicle: saline 108 % of control | dose: 4.5 mg/kg/injection, schedule: Q07DX002 (sc), vehicle: saline 101 % of control | dose: 4.8 mg/kg/injection, schedule: Q07DX003 (iv), vehicle: saline 107 % of control and 108 % of control | dose: 5.4 mg/kg/injection, schedule: Q07DX002 (iv), vehicle: saline 111 % of control | dose: 5.8 mg/kg/injection, schedule: Q07DX003 (iv), vehicle: saline 115 % of control | dose: 6.0 mg/kg/injection, schedule: Q04DX003 (ip), vehicle: water 120 % of control | dose: 6.3 mg/kg/injection, schedule: Q07DX002 (iv), vehicle: saline 105 % of control and 106 % of control | dose: 6.3 mg/kg/injection, schedule: Q07DX003 (iv), vehicle: saline 113 % of control and 114 % of control and 115 % of control | dose: 6.5 mg/kg/injection, schedule: Q07DX002 (iv), vehicle: saline 122 % of control | dose: 7.3 mg/kg/injection, schedule: Q07DX002 (iv), vehicle: saline 117 % of control | dose: 7.3 mg/kg/injection, schedule: Q07DX002 (sc), vehicle: saline 114 % of control | dose: 8.1 mg/kg/injection, schedule: Q07DX002 (iv), vehicle: saline 104 % of control and 112 % of control | dose: 8.1 mg/kg/injection, schedule: Q07DX003 (iv), vehicle: saline 111 % of control and 119 % of control (2×) | dose: 8.7 mg/kg/injection, schedule: Q07DX002 (iv), vehicle: saline 121 % of control | dose: 9.0 mg/kg/injection, schedule: Q07DX003 (iv), vehicle: saline 111 % of control | dose: 9.3 mg/kg/injection, schedule: Q07DX002 (iv), vehicle: saline 109 % of control | dose: 9.8 mg/kg/injection, schedule: Q07DX002 (iv), vehicle: saline 124 % of control | dose: 10.5 mg/kg/injection, schedule: Q07DX002 (iv), vehicle: saline 111 % of control and 88 % of control | dose: 10.5 mg/kg/injection, schedule: Q07DX003 (iv), vehicle: saline 120 % of control and 94 % of control | dose: 12.0 mg/kg/injection, schedule: Q04DX003 (ip), vehicle: water 116 % of control | dose: 12.0 mg/kg/injection, schedule: Q07DX002 (iv), vehicle: saline 123 % of control | dose: 12.0 mg/kg/injection, schedule: Q07DX002 (sc), vehicle: saline 122 % of control | dose: 12.0 mg/kg/injection, schedule: Q07DX003 (iv), vehicle: saline 96 % of control | dose: 14.0 mg/kg/injection, schedule: Q07DX002 (iv), vehicle: saline 115 % of control | dose: 14.0 mg/kg/injection, schedule: Q07DX003 (iv), vehicle: saline 117 % of control
active: dose: 0.25 mg/kg/injection, schedule: Q01DX009 (ip), vehicle: saline 151 % of control | dose: 0.5 mg/kg/injection, schedule: Q01DX009 (ip), vehicle: saline 154 % of control | dose: 1.0 mg/kg/injection, schedule: Q01DX009 (ip), vehicle: saline 243 % of control | dose: 1.73 mg/kg/injection, schedule: Q04DX003 (ip), vehicle: water 157 % of control | dose: 2.0 mg/kg/injection, schedule: Q01DX009 (ip), vehicle: saline 310 % of control | dose: 2.0 mg/kg/injection, schedule: Q04DX003 (ip), vehicle: saline 278 % of control | dose: 4.0 mg/kg/injection, schedule: Q04DX003 (ip), vehicle: saline 334 % of control | dose: 4.8 mg/kg/injection, schedule: Q04DX003 (ip), vehicle: water 152 % of control | dose: 6.3 mg/kg/injection, schedule: Q07DX002 (ip), vehicle: saline 197 % of control | dose: 10.5 mg/kg/injection, schedule: Q07DX002 (ip), vehicle: saline 205 % of control | dose: 19.0 mg/kg/injection, schedule: Q07DX002 (sc), vehicle: saline 155 % of control

CNCCNc1ccc(NCCNC)c2c1C(=O)c1ccccc1C2=O
inactive: [8] 115 % of control
active: dose: 1.0 mg/kg/injection, schedule: Q01DX009 (ip), vehicle: acid diluted with saline 154 % of control | dose: 1.5 mg/kg/injection, schedule: Q01DX009 (ip), vehicle: acid diluted with saline 205 % of control | [5] 219 % of control | dose: 3.0 mg/kg/injection, schedule: Q01DX009 (ip), vehicle: acid diluted with saline 236 % of control | [6] 215 % of control | dose: 6.0 mg/kg/injection, schedule: Q01DX009 (ip), vehicle: acid diluted with saline 226 % of control | [7] 225 % of control | dose: 12.0 mg/kg/injection, schedule: Q01DX009 (ip), vehicle: acid diluted with saline 236 % of control

Nc1ncnc2nc[nH]c12
inactive: dose: 64.0 mg/kg/injection, schedule: Q04DX002 (ip), vehicle: Klucel (hydroxypropylcellulose) (HPC) 97 % of control | dose: 128.0 mg/kg/injection, schedule: Q04DX002 (ip), vehicle: Klucel (hydroxypropylcellulose) (HPC) 91 % of control | dose: 256.0 mg/kg/injection, schedule: Q04DX002 (ip), vehicle: Klucel (hydroxypropylcellulose) (HPC) 95 % of control | dose: 512.0 mg/kg/injection, schedule: Q04DX002 (ip), vehicle: Klucel (hydroxypropylcellulose) (HPC) 94 % of control

CCNCCNc1ccc(NCCNCC)c2c1C(=O)c1ccccc1C2=O
active: [5] 179 % of control | [6] 189 % of control | [7] 163 % of control and 166 % of control | [8] 169 % of control and 177 % of control

NCCc1ccc(O)c(O)c1
inactive: [2] 94 % of control | [3] 109 % of control

N=C(N)Sc1ccccn1
inactive: [1] 94 % of control | [2] 101 % of control | [3] 91 % of control | [4] 91 % of control
